Target: T1, POLγA:A467T (Homo sapiens, UniProt P54098, A467T)
T1 sequence (P54098 1-1239 A467T): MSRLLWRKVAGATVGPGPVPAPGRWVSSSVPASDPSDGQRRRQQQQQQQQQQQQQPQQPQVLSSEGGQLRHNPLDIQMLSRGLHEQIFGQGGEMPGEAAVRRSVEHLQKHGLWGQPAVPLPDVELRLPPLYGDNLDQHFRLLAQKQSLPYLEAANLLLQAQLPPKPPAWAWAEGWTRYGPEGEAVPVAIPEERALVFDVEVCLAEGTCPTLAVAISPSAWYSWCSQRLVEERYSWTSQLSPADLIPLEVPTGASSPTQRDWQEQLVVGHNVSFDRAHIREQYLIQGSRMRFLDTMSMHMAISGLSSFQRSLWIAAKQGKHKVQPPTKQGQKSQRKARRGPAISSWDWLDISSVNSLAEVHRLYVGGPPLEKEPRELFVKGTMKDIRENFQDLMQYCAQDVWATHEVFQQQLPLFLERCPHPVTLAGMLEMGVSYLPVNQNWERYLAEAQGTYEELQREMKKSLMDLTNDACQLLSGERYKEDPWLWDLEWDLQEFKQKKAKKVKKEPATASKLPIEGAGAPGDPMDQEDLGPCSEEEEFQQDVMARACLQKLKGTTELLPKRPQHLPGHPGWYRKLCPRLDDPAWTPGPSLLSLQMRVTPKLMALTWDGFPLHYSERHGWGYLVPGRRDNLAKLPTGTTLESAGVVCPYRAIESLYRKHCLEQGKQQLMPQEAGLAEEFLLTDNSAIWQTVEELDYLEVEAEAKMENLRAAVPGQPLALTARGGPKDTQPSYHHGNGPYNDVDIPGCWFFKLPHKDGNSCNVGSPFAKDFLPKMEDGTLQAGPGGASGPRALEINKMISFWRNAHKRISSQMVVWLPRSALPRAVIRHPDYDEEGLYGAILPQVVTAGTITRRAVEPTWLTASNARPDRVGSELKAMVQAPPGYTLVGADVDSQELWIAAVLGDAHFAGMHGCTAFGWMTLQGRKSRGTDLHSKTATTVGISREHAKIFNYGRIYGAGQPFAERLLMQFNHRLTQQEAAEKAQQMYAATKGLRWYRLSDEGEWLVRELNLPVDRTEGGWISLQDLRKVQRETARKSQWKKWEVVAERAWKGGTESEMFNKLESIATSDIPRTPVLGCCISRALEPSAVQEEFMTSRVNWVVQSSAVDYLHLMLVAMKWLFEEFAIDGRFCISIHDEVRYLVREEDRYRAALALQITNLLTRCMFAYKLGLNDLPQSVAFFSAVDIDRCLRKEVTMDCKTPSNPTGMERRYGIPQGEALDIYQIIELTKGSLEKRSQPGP
T1 sequence (Q9UHN1 1-485 partner): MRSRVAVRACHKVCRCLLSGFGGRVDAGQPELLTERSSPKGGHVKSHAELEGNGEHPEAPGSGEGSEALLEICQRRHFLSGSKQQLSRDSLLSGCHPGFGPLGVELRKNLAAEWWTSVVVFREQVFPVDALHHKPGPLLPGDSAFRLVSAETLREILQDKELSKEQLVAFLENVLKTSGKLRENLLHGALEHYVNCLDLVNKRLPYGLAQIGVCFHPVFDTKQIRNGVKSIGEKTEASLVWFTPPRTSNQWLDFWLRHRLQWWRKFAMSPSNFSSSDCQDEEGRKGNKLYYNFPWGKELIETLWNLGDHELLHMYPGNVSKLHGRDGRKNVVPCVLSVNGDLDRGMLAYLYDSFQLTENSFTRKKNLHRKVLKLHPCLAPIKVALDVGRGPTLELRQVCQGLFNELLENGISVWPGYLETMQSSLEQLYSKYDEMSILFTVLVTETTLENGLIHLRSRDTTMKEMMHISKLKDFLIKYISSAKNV
Assay: DNA polymerization assay, POLγA:A467T mutant
Format: biochemical
Conditions: stimulation of polymerase activity, primed M13mp18 ssDNA, 37° C. 2 hours; read-out: A467T AC50

AC50 | Compound
> 100 µM | Cc1ccc(C)c(S(=O)(=O)Nc2cccc(C(=O)N3CCSCC3C(N)=O)c2)c1 (centres unmarked) [Example 41, 4-(3-((2,5-dimethylphenyl)sulfonamido)benzoyl) thiomorpholine-3-carboxamide]
> 100 µM | COCCN(C)C(=O)c1cccc(NS(=O)(=O)c2cc(C)c(Cl)cc2C)c1 [Example 58, 3-((4-chloro-2,5-dimethylphenyl)sulfonamido)-N-(2-methoxyethyl)-N-methylbenzamide]
> 100 µM | Cc1ccc(C)c(S(=O)(=O)Nc2ccc(C(=O)NCC3CC3)cc2)c1 [Example 40, N-(cyclopropylmethyl)-4-((2,5-dimethylphenyl)sulfonamido)benzamide]
> 100 µM | Cc1cc(S(=O)(=O)Nc2cccc(C(=O)N3CCN(CCO)CC3)c2)c(C)cc1Cl [Example 55, 4-chloro-N-(3-(4-(2-hydroxyethyl)piperazine-1-carbonyl)phenyl)-2,5-dimethylbenzenesulfonamide]
> 100 µM | Cc1cc(S(=O)(=O)Nc2cccc(C(=O)N[C@H](C)CO)c2)c(C)cc1Cl [Example 51, (R)-3-((4-chloro-2,5-dimethylphenyl)sulfonamido)-N-(1-hydroxypropan-2-yl)benzamide]
> 100 µM | Cc1cc(S(=O)(=O)N(C)c2cccc(-c3nccs3)c2)c(C)cc1Cl [Example 22, 4-chloro-N,2,5-trimethyl-N-(3-(thiazol-2-yl)phenyl)benzenesulfonamide]
> 100 µM | Cc1ccc(C)c(S(=O)(=O)Nc2cccc(C(=O)NCc3ccccc3)c2)c1 [Example 28, N-benzyl-3-((2,5-dimethylphenyl)sulfonamido)benzamide]
16 µM | Cc1cc(S(=O)(=O)Nc2cccc(-c3cc[nH]n3)c2)c(C)cc1Cl [Example 68, N-(3-(1H-pyrazol-3-yl)phenyl)-4-chloro-2,5-dimethylbenzenesulfonamide]
4 µM | Cc1csc(-c2cccc(NS(=O)(=O)c3cc(C)c(Cl)cc3C)c2)n1 [Example 20, 4-chloro-2,5-dimethyl-N-(3-(4-methylthiazol-2-yl)phenyl)benzenesulfonamide]
> 100 µM | Cc1ccc(C)c(S(=O)(=O)Nc2cccc(C(=O)N3CCN(C)CC3)c2)c1 [Example 31, 2,5-dimethyl-N-(3-(4-methylpiperazine-1-carbonyl)phenyl)benzenesulfonamide]
> 100 µM | Cc1cc(S(=O)(=O)Nc2ccc(F)c(C(=O)N3CCC[C@H]3C)c2)c(C)cc1Cl [Example 49, (R)-4-chloro-N-(4-fluoro-3-(2-methylpyrrolidine-1-carbonyl)phenyl)-2,5-dimethylbenzenesulfonamide]
> 100 µM | Cc1ccc(C)c(S(=O)(=O)Nc2cccc(C(=O)N3CCCCCC3)c2)c1 [Example 32, N-(3-(azepane-1-carbonyl)phenyl)-2,5-dimethylbenzenesulfonamide]
2 µM | Cc1cc(S(=O)(=O)Nc2csc(C(=O)N3CCCC3)n2)c(C)cc1Cl [Example 166, 4-chloro-2,5-dimethyl-N-(2-(pyrrolidine-1-carbonyl)thiazol-4-yl)benzenesulfonamide]
32 µM | Cc1nc2ccc(NS(=O)(=O)c3cc(C)c(Cl)cc3C)cc2o1 [Example 70, 4-chloro-2,5-dimethyl-N-(2-methylbenzo[d]oxazol-6-yl)benzenesulfonamide]
> 100 µM | Cc1cc(S(=O)(=O)Nc2cc(C(=O)N3CCC[C@H]3C)ccc2F)c(C)cc1Cl [Example 50, (R)-4-chloro-N-(2-fluoro-5-(2-methylpyrrolidine-1-carbonyl)phenyl)-2,5-dimethylbenzenesulfonamide]
> 100 µM | Cc1cc(S(=O)(=O)Nc2cccc(C(=O)N3CCNCC3)c2)c(C)cc1Cl [Example 46, 4-chloro-2,5-dimethyl-N-(3-(piperazine-1-carbonyl)phenyl)benzenesulfonamide]
> 100 µM | Cc1cc(S(=O)(=O)Nc2cc(F)cc(-c3nccs3)c2)c(C)cc1Cl [Example 62, 4-chloro-N-(3-fluoro-5-(thiazol-2-yl)phenyl)-2,5-dimethylbenzenesulfonamide]

From patent US20260138961A1, “MODULATORS OF MITOCHONDRIAL DNA REPLICATION” (Pretzel Therapeutics, Inc., priority 2022, published 2026)
